From patent US20110065645A1, “Compositions and Methods for Modulating Neuron Degeneration and Neuron Guidance” (The Regents of the University of California, priority 2009, published 2011)
“Also recorded” adds a separate entry of the source.

Tests used:
PKA = test: Western blot of activated phospho-PKA (Thr197) in dissociated commissural neurons; format: cell-based, rat; conditions: Shh-N 2.5 μg/ml for one hour; KT5720 25 μM for 15 minutes
Procedure: To confirm that PKA activity can be reduced in commissural neurons exposed to Shh, we treated dissociated spinal cord commissural neurons with Shh and analyzed the level of activated PKA. 24 hr after plating, commissural neurons were serum starved overnight and then treated with 2.5 μg/ml (150 nM) of Shh-N recombinant protein (R&D) for one hour prior to lysate collection. Forskolin (25 μM), and the PKA inhibitor, KT5720 (25 μM) were added to the commissural neuron culture as controls for 15 minutes before lysis. We then tested these lysates for levels of activated PKA with an antibody that specifically recognizes an activated form of the catalytic domain of PKA (phosphorylated at Thr197).
Dissociated commissural neuronal culture. Spinal cords were isolated from rat E13 embryos and commissural neurons were dissociated as previously described.^(8) In brief, embryos were treated with Dispase I (0.25 mg/ml; D4818, Sigma) for 5 minutes prior isolation of spinal cords, followed by collection of spinal cord dorsal domains by microdissection and incubation with Trypsin (1 mg/ml; T47-99, Sigma) for 10-12 min in a 37° C. water bath. The tissue was then triturated with flamed glass pipettes and a single cell suspension was plated on poly-D-lysine (PDL; 20 μg/ml) and laminin (10 μg/ml) coated coverslips or 12 well plates (Corning). More than 90% cells in these cultures express TAG-1, a marker for spinal cord commissural neurons (FIG. 35B). 10^5 dissociated cells were plated on PDL/laminin coated coverslips and cultured for 24 hrs before processed for immunohistochemistry as described above. For Western blot analysis, 10^6 dissociated cells were plated on PDL/laminin coated 12-well tissue culture plates and cultured initially for 24 hrs in dorsal explant media (replenished daily) then changed to low serum medium overnight prior to treatments. […]

[1] = tested on: pre-crossing commissural axons; test: Precrossing commissural explant assay in collagen gel; format: cell-based, rat; conditions: collagen gel containing Netrin-1 and Shh expressing COS-7 cells
Source text: Shh activates Semaphorin repulsion in commissural axons. We investigated the mechanisms by which Semaphorin repulsion in commissural axons is switched on during spinal cord midline pathfinding. Commissural neuron cell bodies are located in the dorsal spinal cord and initially extend axons to the ventral midline, the floor plate, in the process of several days (from late E8.9/early E9.5 in mouse and late E10 and E11 in rats till at least E12.5 in mouse and E14 in rat). The commissural axons in the rostral (anterior) spinal cord differentiate and their axons develop earlier than their caudal (posterior) counterparts. At each axis level, the more dorsal populations tend to differentiate and extend axons later than the ventral population in the dorsal spinal cord during this stage of development. […] To quantify these effects, the total length of axons extending towards (proximal) or away (distal) from cell aggregates (FIG. 31B) was calculated in each experiment as the ratio of axons growing proximally (P) divided by axons growing distally (D) (FIG. 31i). […]
Precrossing commissural explant assay. […] For quantification the total length of axon bundle was measured in the proximal (P) and distal (D) quadrants as depicted in FIG. 31B. […]

commissural axons = test: Open book spinal cord explant treatments and DiI injections (midline pathfinding); format: cell-based; conditions: rat E13 open-book; 5E1 100 ng/ml, Forskolin 25 μM, KT5720 25 μM; 12-14 hrs
Source text: Blocking Shh activity causes midline guidance defects. To determine the role of Shh in regulating midline pathfinding, we analyzed the trajectory of commissural axons in rat E13 “open-book” spinal cord preparations treated with the function-blocking antibody for Shh, 5E1. The projections of these commissural axons were visualized by injecting the lipophilic dye, DiI, to the dorsal margin of the spinal cord (FIG. 32J). In “open-book” explants, commissural axons can recapitulate the in vivo pathfinding and project from the dorsal spinal cord margin across the floor plate and then turn sharply anteriorly on the contralateral side.^(7,8). […] Normally, after midline crossing, commissural axons make a sharp anterior turn and either project into the ventral funiculus alongside the floor plate or fan out in a highly organized manner to grow laterally into the lateral funiculus^(7) (FIG. 32G). […] The spinal cord midline is a three-dimensional structure. […] Some of the injection sites were therefore scored for more than one category of phenotypes. […]
Shh may induce Sema repulsion by reducing cAMP/PKA signaling. […] In “open-book” explant cultures we treated commissural axons with the activator for adenylyl cyclase (and consequently cAMP), Forskolin and the PKA inhibitor KT5720 and analyzed commissural axon pathfidning by DiI tracing as shown in FIG. 32J. […]

With “Shh-N: recombinant mouse Sonic Hedgehog, amino-terminal peptide (R&D); also secreted by transfected COS-7 cells” the “level of activated PKA” value (PKA) was “reduce the level of activated PKA; also recorded: significant reduction of activated PKA” and the “response of pre-crossing commissural axons to Semaphorins” value [1] was “repelled by Sema3B- and Sema3F-secreting cell clumps”.

In the case of `CCCCCCOC(=O)[C@]1(O)C[C@@H]2O[C@@]1(C)n1c3ccccc3c3c4c(c5c6ccccc6n2c5c31)C(=O)NC4` [KT5720, reference compound], the “level of activated PKA” value (PKA) was “reduce the level of activated PKA” and the “commissural axon midline pathfinding (DiI tracing)” value (commissural axons) was “prevented a vast number of axons from entering the floor plate”.
